# Test results published in patent US12577213B2 (NINGBO COMBIREG PHARMACEUTICAL TECHNOLOGY CO., LTD., priority 2020, dated 2026).
# What was measured:
# [1] = system: breast cancer cell line SUM159 sphere; assay: Breast cancer stem cell sphere formation; format: cell-based, human; settings: 50 nM; for formation of the sphere after cell passage: 5 days of drug treatment, then passage
# Protocol: The inhibitory effects of embodiment compounds 5, 7, 11, 13, 14, 20 and 21 on the formation of breast cancer cell line SUM159 sphere are described as follows.
# The breast cancer cell line SUM159 sphere was cultured with serum-free medium in an ultra-low adsorption plate, the basal medium was DMEM/F12 (without phenol red), and B27 (without vitamin A) (1×), EGF (20 ng/ml), bFGF (20 ng/ml) and insulin (insulin, 5 ug/ml) were added.
# An equal number (4000) of SUM159 cells per well were inoculated into an ultra-low adsorption 24 plate, and the sphere was photographed after 5 days of culture, replaced with fresh medium, and treated with drugs at certain concentrations, respectively. Compounds 5, 7, 11, 13, 14, 20 and 21 were evaluated in this experiment at 50 nM, respectively. The effect of the drug on the sphere phenotype could be observed after about 3 days of drug treatment. The sphere was photographed again after 5 days of drug treatment, and then the sphere was passaged. The sphere was photographed again after 7 days of passage.
# The differences of the photographs taken in three different stages were counted and compared, and the killing effect of the tested compounds on SUM159 sphere was evaluated through the differences of sphere formation after passage, thus reflecting the inhibitory effects of different compounds on breast cancer stem cells.
# [2] = system: xenograft of human lung cancer NCI-H522 in nude mice; assay: Xenograft tumor growth inhibition, NCI-H522; format: in vivo, BALB/c nude mice; settings: iv., q4d × 6
# Protocol: (§1) The embodiment compound was prepared as a 40× stock solution of DMSO and diluted to the administered concentration with saline containing 2.5% Tween 80 (Tween 80) used before;
# (§2) Male BALB/c nude mice, 4-5 weeks old, were purchased from Beijing Vital River Laboratory Animal Technology Co., Ltd, with a license No. SCXK(Beijing)2012-0001, and the mice were bred in the SPF-class laboratory animal center of Tsinghua University. The tumor lines used in the experiment were: xenograft of human lung cancer NCI-H522 in nude mice, xenograft of human colon cancer HCT-116 in nude mice.
# (§3) Tumor-bearing animals with good tumor growth and overall condition were selected and sacrificed by cervical dislocation. The tumors were removed under aseptic condition, cut into tumors with 2-3 mm diameter by a scalpel, and inoculated subcutaneously behind the armpit of nude mice by trocar. The tumors grew naturally and were randomly grouped after the tumor volume grew to 105 mm^3, and the administration date of grouping was set as D0 (Day 0).
# (§4) Grouping experiment, with 7-9 animals in each group, starting from now on, administration was started according to the weight of the animals. During the administration process, the long, short diameter of the tumors and weight of animals were measured every 2-3 days, and the tumor size was calculated by the formula: (½)×long diameter×(short diameter)^2, and the experiment was ended on the 27th day (D27) after grouping. At the end of the experiment, the animals were sacrificed by cervical dislocation, the tumors were peeled off and weighed, and the inhibitory rates of the drugs on tumor growth were calculated. Tumor volume (TV) and relative tumor volume (RTV) were calculated. T test was used to compare the statistical significance of the differences in tumor weight, tumor volume and RTV of the animals in each group.
# (§5) Calculation formulas are as follows: average tumor weight in the vehicle control group−average tumor weight in the treatment group Tumor inhibition rate (%)=(average tumor weight in the vehicle control group−average tumor weight in the treatment group)[…](average tumor weight in the vehicle control)×100. Tumor volume (TV)=(length×width^2)/2. Relative tumor volume (RTV)=Vt/Vo (wherein, Vo is the TV measured at the time of grouping and administration, and Vt is the TV at each subsequent measurement).
# (§6) [formula] • Efficacy evaluation criteria: T/C (%)>40 is invalid; • T/C (%)≤40, and P<0.05 is effective after statistical processing. 4.
# [3] = system: xenograft of human colon cancer HCT-116 in nude mice; assay: Xenograft tumor growth inhibition, HCT-116; format: in vivo, BALB/c nude mice; settings: for Relative tumor proliferation rate (%) / Tumor weight inhibition rate (%): HCT116 xenograft; for efficacy evaluation on growth of HCT-116 xenograft (in words): criteria: T/C (%)≤40 and P<0.05 is effective
# Protocol: as §1, §2, §3, §4, §5, §6
# [4] = 20 mg/kg, intravenous injection every other day × 3
# [5] = 20 mg/kg, intravenous injection every other day × 9
# [6] = 16 mg/kg, intravenous injection every other day × 9
Compound,killing effect on SUM159 sphere [1],formation of the sphere after cell passage [1],T/C (%) ([2]; 12.5 mg/kg),Tumor weight inhibition (%) ([2]; 12.5 mg/kg),T/C (%) ([2]; 25 mg/kg),Tumor weight inhibition (%) ([2]; 25 mg/kg),T/C (%) ([2]; 50 mg/kg),Tumor weight inhibition (%) ([2]; 50 mg/kg),"Relative tumor proliferation rate (%) [3, 4]","Tumor weight inhibition rate (%) [3, 4]",efficacy evaluation on growth of HCT-116 xenograft (in words) [3],"Relative tumor proliferation rate (%) [3, 5]","Tumor weight inhibition rate (%) [3, 5]","Relative tumor proliferation rate (%) [3, 6]","Tumor weight inhibition rate (%) [3, 6]"
"[2H]C([2H])([2H])Oc1cc(C(=O)Nc2cc3c(cc2Oc2cc(C)cc(C)c2)C(=O)N[C@@H](CC(=O)N(C([2H])([2H])C([2H])([2H])[2H])C([2H])([2H])C([2H])([2H])[2H])C(=O)N3)c(Br)c(OC([2H])([2H])[2H])c1OC([2H])([2H])[2H] [Compound 5, (S)-2-bromo-N-[3-[2-[bis(pentadeuteroethyl)amino]-2-oxoethyl]-7-(3,5-dimethylphenoxy)-2,5-dioxo-2,3,4,5-tetrahydro-1H-benzo[e][1,4]diazepin-8-yl]-3,4,5-tris(trideuteromethoxy)benzamide]",strong killing effect,significantly reduced,31.7%,72.03%,21.2%,84.20%,14.2%,90.02%,34%,69.6%,inhibit the growth,,,,
"[2H]C([2H])([2H])Oc1cc(C(=O)Nc2cc3c(cc2Oc2cc(C)cc(C)c2)C(=O)N[C@@H](CC(=O)N(C)C)C(=O)N3)c(Br)c(OC([2H])([2H])[2H])c1OC([2H])([2H])[2H] [Compound 20, (S)-2-bromo-N-[3-[2-(dimethylamino)-2-oxoethyl]-7-(3,5-dimethylphenoxy)-2,5-dioxo-2,3,4,5-tetrahydro-1H-benzo[e][1,4]diazepin-8-yl]-3,4,5-tris(trideuteromethoxy)benzamide]",strong killing effect,significantly reduced,,,,,,,,,inhibit the growth,30%,75.4%,,
"[2H]C([2H])([2H])Oc1cc(C(=O)Nc2cc3c(cc2Oc2cc(C)cc(C)c2)C(=O)N(C)[C@@H](CC(=O)N(C)C)C(=O)N3)c(Br)c(OC([2H])([2H])[2H])c1OC([2H])([2H])[2H] [Compound 16, (S)-2-bromo-N-[3-[2-(dimethylamino)-2-oxoethyl]-7-(3,5-dimethylphenoxy)-4-methyl-2,5-dioxo-2,3,4,5-tetrahydro-1H-benzo[e][1,4]diazepin-8-yl]-3,4,5-tris(trideuteromethoxy)benzamide]",,,,,,,,,,,inhibit the growth,,,38%,63.4%
